We go through 18 compounds from article PMC7698306, “Exploring the Role of a Novel Peptide from Allomyrina dichotoma Larvae in Ameliorating Lipid Metabolism in Obesity” (International Journal of Molecular Sciences, 2020).

Assay [1] deals with HFD-fed mice. Kind of assay: Body weight, energy intake, organ and adipose tissue weights, DXA body fat in high-fat diet (HFD)-fed mice. In kind it is in vivo, C57BL/6 mice. From the text:
(§1) Four-week-old male C57BL/6 mice were purchased from the Nara Bio Animal Center (NARA Biotech, Seoul, Korea) All experiments were approved by the Institutional Animal Care and Use Committee of Konkuk University (14 July 2019). All possible efforts were made to minimize the suffering and the animal count utilized in this study (KU19102). The mice were randomly divided into the following two groups after 1 week of acclimatization: n = 8 in the control group, fed a normal diet (Control, fat content of 10% kcal), and n = 30, fed a high-fat diet (HFD, fat content of 60% kcal). Mice were registered daily for food intake, and their body weights were assessed twice a week. After 5 weeks, mice with a body weight 20% higher than that of the control group were picked and divided randomly into three groups (n = 8/group): HFD + EIA10, 100 mg/kg/d; and HFD + orlistat, 60 mg/kg /d for 5 weeks. As a positive control, Orlistat was used. After 12 weeks, the mice were subjected to fasting overnight and sacrificed (Figure 2A). Blood samples were harvested for further analysis. Sections of epididymal adipose and liver tissues were fixed in 10% formaldehyde for histological analyses and frozen in liquid nitrogen.
Dual-energy X-ray absorptiometry (DXA) measurements were used to compare the body fat. DXA measurements were performed after 4 weeks of administration using a total-body scanner (InAlyzer dual X-ray absorptiometry, Medikors, Gyeonggi, Korea). Data were obtained once with low energy and once with high energy.

Assay [2] relates to HFD-fed mice. Kind of assay: Serum biochemical parameters in HFD-fed mice. In kind it is in vivo, C57BL/6 mice. Conditions: EIA10 100 mg/kg/d or orlistat 60 mg/kg/d oral for 5 weeks, mean ± SEM, n = 8.
Source text: as §1
Through heart puncture, blood samples were collected and serum was isolated through centrifugation (3000 rpm for 20 min) and processed before further study at −80 °C. An automated analyzer (Abaxis VETSVAN VS2 Chemistry Analyzer, Union City, CA, USA) assessed serum levels of blood urea nitrogen, alanine aminotransferase (ALT), alkaline phosphatase, aspartate aminotransferase (AST), total protein, serum albumin, and electrolytes. Using a fast blood lipid analyzer (OSANG Healthcare Lipid Pro, Anyang, Korea), total cholesterol (TC), low-density lipoprotein cholesterol (LDL), high-density lipoprotein cholesterol (HDL), and TG were calculated. Adiponectin was analyzed by Western blotting, and leptin was quantified using a leptin enzyme-linked immunosorbent assay (ELISA) kit (MERCK, DHB, Germany).

In assay [3] the test system is HFD-fed mice. Put plainly: Oral glucose tolerance test, insulin levels and insulin resistance indices in HFD-fed mice. Conditions: oral glucose 1 g/kg after 12 h fast; vs HFD group, p < 0.05; Figure 3B. In kind it is in vivo, C57BL/6 mice.
Source text: as §1, with “After 5 weeks, mice with a body weight 20% higher than that of the control group were picked and divided randomly into three groups (n = 8/group):” left out, “nitrogen. An oral glucose tolerance test (OGTT) to determine the clearance of a standardized glucose load was performed after 5 weeks of oral administration. Plasma glucose was determined under postabsorptive conditions with blood collected at time ‒30 and 0 and then after oral administration of 1 g/kg of glucose at 30, 60, 90, and 120 min. Using a Blood Glucose Testing System (891 Hogye-Dong Dongan-gu, Anyang, Gyeonggi-do, Korea), blood samples were measured from the tail veins. A mouse ultrasensitive insulin ELISA package (ALPCO, Salem, NH, USA) was quantified for serum insulin. The hepatic insulin resistance index (hepatic IRI) was estimated by using the validated method of Matsuda and DeFronzo [43]. Insulin resistance was assessed using the homeostasis model assessment of insulin resistance (HOMA-IR). HOMA is a mathematically derived model of glucose–insulin feedback.” for “nitrogen.”

The next assay deals with 3T3-L1 cells. Kind of assay: Lipid accumulation in differentiated 3T3-L1 cells by Oil Red O staining. In kind it is cell-based. The note with it: synthesized peptides, untreated cells as control. The protocol: The 3T3-L1 cells were obtained from the Korean Cell Line Bank (Seoul, Korea). They were cultured and maintained in Dulbecco’s modified Eagle medium (DMEM) at 37 °C in a humidified atmosphere of 5% CO2. Additionally, 2-day post-confluent preadipocytes (designated day 0) were cultured in a 2-day differentiation medium composed of DMEM, 0.5 mM IBMX, 1 μM dexamethasone, and 5 μg/mL insulin to induce differentiation. The cells were then cultured in a DMEM containing 5 μg/mL insulin for another 2 days. The medium was replaced every 2 days until the cells had accumulated intracellular lipid droplets. Cells were seeded in 6-well plates, and adipocyte differentiation was induced for 8 days. On day 8, the cells were fixed with 10% buffered formalin and stained with Oil Red O solution for 60 min at room temperature. Images of lipid droplets in the 3T3-L1 adipocytes were captured using a Leica DMi1 microscope (Leica, Germany).

The mark [4] stands for this setting: male C57BL/6 mice on HFD, EIA10 100 mg/kg/d or orlistat 60 mg/kg/d oral for 5 weeks, mean ± SEM, n = 8.

Where “and” joins values, the source holds several entries; their conditions need not be identical. Identical values can stand only once. No end group written: not given here.

`CCCCCCCCCCC[C@@H](C[C@@H]1OC(=O)[C@H]1CCCCCC)OC(=O)[C@H](CC(C)C)NC=O` [Orlistat, reference compound]: the Total fat weight with HFD-fed mice [1] (DXA, male C57BL/6 mice on HFD, EIA10 100 mg/kg/d or orlistat 60 mg/kg/d oral, mean ± SEM, n = 8) is recorded as 13.71 ± 1.09 g. Further, the “food intake between different drug groups (appetite)” value in the assay on HFD-fed mice [1] (HFD-fed mice, EIA10 100 mg/kg/d or orlistat 60 mg/kg/d oral) was “No significant difference”. In the assay with HFD-fed mice [1] (setting [4]), the Body weight gain worked out at 12.56 ± 0.45 g, the “Epididymal adipose tissue weight” value was determined as 1.90 ± 0.48 g, the Final body weight is given as 36.11 ± 3.92 g and the Initial body weight turned out to be 23.55 ± 0.07 g. In the assay with HFD-fed mice [1] (setting [4]), the Liver weight is on record as 1.14 ± 0.12 g and the “Subcutaneous adipose tissue weight” value is given as 3.11 ± 0.53 g. Further, the Total energy intake in the assay on HFD-fed mice [1] (over 10 weeks, male C57BL/6 mice on HFD, EIA10 100 mg/kg/d or orlistat 60 mg/kg/d oral for 5 weeks, mean ± SEM, n = 8) is 1031.35 kcal and 1031.35 ± 26.32 kcal. This compound also showed a Glucose in the assay on HFD-fed mice [2] of 160.78 ± 13.62 mg/dL. Further, in the assay with HFD-fed mice [2] (serum), the “ALT (alanine aminotransferase)” value is 44.75 ± 8.38 U/L, the “AST (aspartate aminotransferase)” value is given as 113.88 ± 16.17 U/L, the “HDL (high-density lipoprotein cholesterol)” value is 72.05 ± 4.38 mg/dL and the LDL/VLDL stood at 41.21 ± 2.59 mg/dL. Besides, in the assay on HFD-fed mice [2] (serum), the “TC (total cholesterol)” value is 113.26 ± 3.40 mg/dL and the “TG (triglyceride)” value is 115.52 ± 4.66 mg/dL. Moreover, in the assay with HFD-fed mice [3], the “area under the OGTT curve (AUC)” value was “significantly lower”.

As to ALNQAWAFLK [Peptide 16], in the assay on 3T3-L1 cells, the “Lipid Accumulation (% of Control)” value is recorded as 57.47 % of Control.

Turning to AVQGLLK [Peptide 5], in the assay on 3T3-L1 cells, the “Lipid Accumulation (% of Control)” value is given as 48.40 % of Control. Regarding “Ala-Glu-Arg-Val-Gly-Ala-Gly-Ala-Pro-Val-Try [Peptide 17]”, in the assay on 3T3-L1 cells, the “Lipid Accumulation (% of Control)” value is reported as 35.06 % of Control. On to EIAQDFK [Peptide 3], for which the “Lipid Accumulation (% of Control)” value in the assay with 3T3-L1 cells is reported as 52.20 % of Control. Take HLQLAIR [Peptide 4]: the “Lipid Accumulation (% of Control)” value in the assay on 3T3-L1 cells is recorded as 63.26 % of Control. Consider HLQLAIRNDEELNK [Peptide 22], for which the “Lipid Accumulation (% of Control)” value with 3T3-L1 cells is recorded as 83.11 % of Control. Turning to IAQGGVLP [Peptide 6], the “Lipid Accumulation (% of Control)” value in the assay on 3T3-L1 cells is reported as 38.01 % of Control. Same read-out and setting: the result for KLPFQR [Peptide 1] reads 57.85 % of Control; that for NDEELNKLL [Peptide 7], 39.44 % of Control. Regarding NKLLSGVTIA [Peptide 14], in the assay with 3T3-L1 cells, the “Lipid Accumulation (% of Control)” value was 77.76 % of Control. The same measure, in the same setting: the result for QNIIPASTGAAK [Peptide 21] reads 44.40 % of Control; that for RFQSSAVMA [Peptide 12], 57.47 % of Control; that for RIVDFHMLESR [Peptide 18], 41.94 % of Control.

Consider SGVTIAQGGVLP [Peptide 19], for which the “Lipid Accumulation (% of Control)” value with 3T3-L1 cells is given as 68.00 % of Control. Still for that read-out and setting: the same measure for STELLIR [Peptide 2]: 59.04 % of Control; for TLSDYNIQK [Peptide 13]: 68.00 % of Control. On to VTIAQGGVLFNIQA [Peptide 23], for which, in the assay on 3T3-L1 cells, the “Lipid Accumulation (% of Control)” value was 74.36 % of Control.
